Measured values published in patent publication US7071195B2, “Amine and amide derivatives as ligands for the neuropeptide Y Y5 receptor useful in the treatment of obesity and other disorders” (Ortho-McNeil Pharmaceutical, Inc., priority 1999, dated 2006).
Structures can show the parent of a compound that is named as a salt.

Target: T1, human neuropeptide Y5 receptor (Homo sapiens, UniProt Q15761)
T1 construct: expressed in transfected cells; host or cells: HEK-293 (stably transfected, G-418 selected); membranes
T1 sequence (Q15761 1-445): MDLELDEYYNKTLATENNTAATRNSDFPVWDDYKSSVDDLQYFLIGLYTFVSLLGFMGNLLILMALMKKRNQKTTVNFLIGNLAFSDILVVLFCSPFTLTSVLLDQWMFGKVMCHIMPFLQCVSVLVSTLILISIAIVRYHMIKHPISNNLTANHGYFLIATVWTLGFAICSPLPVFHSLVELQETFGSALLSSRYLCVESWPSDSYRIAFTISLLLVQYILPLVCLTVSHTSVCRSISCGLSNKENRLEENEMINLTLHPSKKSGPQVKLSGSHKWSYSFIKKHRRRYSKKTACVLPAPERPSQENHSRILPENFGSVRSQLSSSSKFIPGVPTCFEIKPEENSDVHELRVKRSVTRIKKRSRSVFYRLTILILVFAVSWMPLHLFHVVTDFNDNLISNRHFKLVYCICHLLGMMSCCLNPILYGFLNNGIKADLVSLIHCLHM
Test: NPY5 HTS centrifugation assay: competition with 125I-PYY for binding to membranes of NPY5-transfected HEK293 cells
Conditions: 80 pM 125I-PYY, 1 hr room temperature; for % Inh @ 300 nM (% Inhibition of 125I-PYY Binding) / inhibition at 0.3 µM: 300 nM compound; for % Inh @ 3 uM (% Inhibition of 125I-PYY Binding) / inhibition at 3 µM: 3 uM compound; for inhibition at 0.3 µM: read-out: % Inh @ 300 nM (% Inhibition of 125I-PYY Binding); for inhibition at 3 µM: read-out: % Inh @ 3 uM (% Inhibition of 125I-PYY Binding)
Protocol: The compounds described in this invention were evaluated for binding to the human neuropeptide Y5 receptor.
Stably transfected cells served as the source for the membranes for the NPY5 receptor binding assay.
NPY5-transfected HEK293 cells were grown to confluence in 150 cm^2 culture dishes. […] Cells were then incubated in phosphate-buffered saline without Calcium and without Magnesium, supplemented with 2 mM EDTA. Cells were incubated for 10 minutes at room temperature and the cells were collected by repetitive pipeting. Cells were formed into pellets and then frozen at −80 until needed. Frozen pellets were homogenized with a polytron at full speed for 12 seconds in a homogenization buffer (20 mM Tris HCl, 5 mM EDTA, pH 7.4). Homogenates were centrifuged for 5 minutes at 4 C at 200 g. Supernatants were transferred to corex tubes and centrifuged for 25 minutes at 28,000 g. Pellets were re-suspended in Binding (20 mM HEPES, 10 mM NaCl, 0.22 mM KH2PO4, 1.3 mM CaCl2, 0.8 mM MgSO4, pH 7.4). Membranes were kept on ice until use.
Compounds to be tested were prepared as 10× stocks in binding buffer and added first to assay tubes (RIA vials, Sarstedt). […] To each tube is added 100 μL of membranes and the mixture is agitated by pipeting 2 times. Samples are incubated for 1 hr at room temperature. Aluminum cast plates (Sarstedt) containing the vials are then centrifuged 10 minutes at 3200 rpm in a Sorvall RT6000. Supernatant is then aspirated. To each vial 400 μL PBS is added and this is then aspirated again. Vials are then put in carrier polypropylene 12×75 tube and counted in gamma counter (Packard). Non-specific binding is determined in the presence of 300 nM NPY. […] These operations are known to those skilled in the art.

Row | Compound | % Inh @ 300 nM (% Inhibition of 125I-PYY Binding) | % Inh @ 3 uM (% Inhibition of 125I-PYY Binding) | inhibition at 0.3 µM | inhibition at 3 µM
1 | NC(CCCCNS(=O)(=O)c1ccccc1)C(=O)NC1CCc2ccccc2C1Cc1cccnc1 (mixture of isomers) [Compound 33] | 52% | 96% | – | –
2 | CC(=O)NC(CCCCNS(=O)(=O)c1ccccc1)C(=O)NC1CCc2ccccc2C1Cc1cccnc1 (mixture of isomers) [Compound 37] | 89% | 102% | – | –
3 | O=C(NC(CCCCNS(=O)(=O)c1ccccc1)C(=O)NC1CCc2ccccc2C1Cc1cccnc1)c1ccccc1 (mixture of isomers) [Compound 39] | 70% | 95% | – | –
4 | CCNC(=O)NC(CCCCNS(=O)(=O)c1ccccc1)C(=O)NC1CCc2ccccc2C1Cc1cccnc1 (mixture of isomers) [Compound 40] | 21% | 92% | – | –
5 | NC(=O)NC(CCCCNS(=O)(=O)c1ccccc1)C(=O)NC1CCc2ccccc2C1Cc1cccnc1 (mixture of isomers) [Compound 41] | 54% | 94% | – | –
6 | CC(C)(C)OC(=O)NC1CCN(CC(=O)NC2CCc3cc(F)ccc3C2Cc2cccnc2)C1 (mixture of isomers) [Compound 56] | 88% | 94% | – | –
7 | CC(C)(C)OC(=O)NC1CCN(CC(=O)NC2CCc3cc(F)ccc3C2Cc2cccnc2)C1 (mixture of isomers) [Compound 57] | 87% | 93% | – | –
8 | O=C(CN1CCC(NS(=O)(=O)c2ccccc2)C1)NC1CCc2cc(F)ccc2C1Cc1cccnc1 (mixture of isomers) [Compound 58] | 93% | 91% | – | –
9 | O=C(CN1CCC(NS(=O)(=O)c2ccccc2)C1)NC1CCc2cc(F)ccc2C1Cc1cccnc1 (mixture of isomers) [Compound 59] | 90% | 93% | – | –
10 | O=C(CN1CCC(NC(=O)c2ccccc2)C1)NC1CCc2cc(F)ccc2C1Cc1cccnc1 (mixture of isomers) [Compound 60] | 86% | 109% | – | –
11 | NC(CCCCNS(=O)(=O)c1ccccc1)CNC1CCc2ccccc2C1Cc1cccnc1 (mixture of isomers) [Compound 65] | 79% | 98% | – | –
12 | CCNC(CCCCNS(=O)(=O)c1ccccc1)CNC1CCc2ccccc2C1Cc1cccnc1 (mixture of isomers) [Compound 68] | 109% | 108% | – | –
13 | O=C(Nc1ccccc1)NC(CCCCNS(=O)(=O)c1ccccc1)C(=O)NC1CCc2ccccc2C1Cc1cccnc1 (mixture of isomers) [Compound 72] | 41% | 73% | – | –
14 | O=C(CN1CCC(NS(=O)(=O)c2ccccc2)C1)N[C@H]1CCc2cc(F)ccc2[C@H]1Cc1cccnc1 (relative stereo) [Compound 17, 3-[(Phenylsulfonyl)amino]-N-[cis-1,2,3,4-tetrahydro-6-fluoro-1-(3-pyridinylmethyl)-2-naphthalenyl]-1-pyrrolidineacetamide bis-trifluoroacetate] | – | – | 98% | 102%
15 | COc1ccc2c(c1)CC[C@H](NC(=O)CN1CCC(n3c(=O)[nH]c4ccccc43)CC1)[C@@H]2Cc1cccnc1 (relative stereo) [Compound 19, 4-(2,3-Dihydro-2-oxo-1H-benzimidazol-1-yl)-N-[cis-1,2,3,4-tetrahydro-6-methoxy-1-(3-pyridinylmethyl)-2-naphthalenyl]-1-piperidineacetamide Bis-hydrochloride] | – | – | 69% | 101%
16 | COc1ccc2c(c1)CC[C@@H](NC(=O)CN1CCC(n3c(=O)[nH]c4ccccc43)CC1)[C@@H]2Cc1cccnc1 (relative stereo) [Compound 20, 4-(2,3-Dihydro-2-oxo-1H-benzimidazol-1-yl)-N-[trans-1,2,3,4-tetrahydro-6-methoxy-1-(3-pyridinylmethyl)-2-naphthalenyl]-1-piperidineacetamide bis-hydrochloride] | – | – | 88% | 96%
17 | CC(=O)C1(c2ccccc2)CCN(CC(=O)N[C@H]2CCc3ccccc3[C@H]2Cc2cccnc2)CC1 (relative stereo) [Compound 21, 4-Acetyl-4-phenyl-N-[cis-1,2,3,4-tetrahydro-1-(3-pyridinylmethyl)-2-naphthalenyl]-1-piperidineacetamide bis-hydrochloride] | – | – | 83% | 98%
18 | O=C(CN1CCC2(CC1)C(=O)NCN2c1ccccc1)N[C@H]1CCc2ccccc2[C@H]1Cc1cccnc1 (relative stereo) [Compound 22, 4-Oxo-1-phenyl-N-[cis-1,2,3,4-tetrahydro-1-(3-pyridinylmethyl)-2-naphthalenyl]-1,3,8-triazaspiro[4.5]decane-8-acetamide bis-hydrochloride] | – | – | 32% | 70%
19 | O=C(CN1CCC(n2c(=O)[nH]c3ccccc32)CC1)N[C@H]1CCc2cc(O)ccc2[C@H]1Cc1cccnc1 (relative stereo) [Compound 23, 4-(2,3-Dihydro-2-oxo-1H-benzimidazol-1-yl)-N-[cis-1,2,3,4-tetrahydro-6-hydroxy-1-(3-pyridinylmethyl)-2-naphthalenyl]-1-piperidineacetamide bis-hydrochloride] | – | – | 96% | 100%
20 | O=C(NCC(Cc1cccnc1)c1ccc(F)cc1)[C@H]1CC[C@H](CNS(=O)(=O)c2ccccc2F)CC1 (relative stereo) [Compound 26, trans-N-[2-(4-fluorophenyl)-3-(3-pyridinyl)propyl]-4-[((2-fluorophenylsulfonyl)amino)methyl]-1-cyclohexanamide hydrochloride] | – | – | 108% | 110%
21 | NC(CCCCNS(=O)(=O)c1ccccc1)C(=O)NC1CCc2ccccc2C1Cc1cccnc1 (single isomer, unassigned) [Compound 34a] | 87% | 97% | – | –
22 | NC(CCCCNS(=O)(=O)c1ccccc1)C(=O)NC1CCc2ccccc2C1Cc1cccnc1 (single isomer, unassigned) [Compound 34b] | 61% | 99% | – | –
23 | CC(=O)NC(CCCCNS(=O)(=O)c1ccccc1)C(=O)NC1CCc2ccccc2C1Cc1cccnc1 (single isomer, unassigned) [Compound 38a] | 80% | 104% | – | –
24 | CC(=O)NC(CCCCNS(=O)(=O)c1ccccc1)C(=O)NC1CCc2ccccc2C1Cc1cccnc1 (single isomer, unassigned) [Compound 38b] | 89% | 101% | – | –
25 | CN(C)C(CCCCNS(=O)(=O)c1ccccc1)C(=O)NC1CCc2ccccc2C1Cc1cccnc1 (single isomer, unassigned) [Compound 43a] | 84% | 93% | – | –
